Laboratory results published in ChEMBL document CHEMBL1150745, “Plant anticancer agents, XLVI. Cytotoxic casbane-type constituents of Agrostistachys hookeri” (1988).
Values after ≈ are worked out from the molar mass of the structure shown.

tested on: P388; assay: Cytotoxicity against mouse P388 cells; type: functional; conditions: read-out: ED50 (the source's name)

Compound | EC50 [µg/mL]
C/C1=C/C(=O)C/C(C)=C/[C@H](O)C(=O)/C(C)=C/[C@H]2[C@@H](CC1)C2(C)C | 2.8 (≈ 8.85 µM)
C/C1=C/[C@H](O)C/C(C)=C/[C@H](O)C(=O)/C(C)=C/[C@H]2[C@@H](CC1)[C@]2(C)CO | 0.8 (≈ 2.39 µM)
C/C1=C\[C@H](O)C(=O)/C(C)=C/[C@@H]2[C@@H](CCC(C)(O)/C=C/C1)C2(C)C (some centres undefined) [AGROSKERIN] | 1.4 (≈ 4.4 µM)
C/C1=C/[C@H](O)C/C(C)=C/[C@H](O)C(=O)/C(C)=C/[C@H]2[C@@H](CC1)C2(C)C [AGROSTISTACHIN] | 1.4 (≈ 4.4 µM)
